From publication PMC11973282, “RAS70 peptide targets multiforme glioblastoma by binding to the plasma membrane heat shock protein HSP70” (Frontiers in Oncology, 2025)
Where a SMILES comes first, the peptide text is derived from it. [ ]: non-standard residue; d: D form. βAla = NCCC(=O)O

How the values were obtained:
[1] = tested on: human U87 glioblastoma cells; assay: Flow cytometry of FITC-labeled peptide internalization, 24 h (also with antibody pre-treatment); format: cell-based
Protocol: (§1) The binding of the TKD-sCy5, RAS70-sCy5, and NGL-RGD-sCy5 peptides were analyzed using a CytoFLEX flow cytometer (Beckman Coulter, USA). A single cell suspension of C6, GL261, T98G, U87, U251, ANI, IBD, TMS (0.15×10^6 cells in mL^-1) were incubated for 30 minutes on ice in the dark with peptides in concentration of 75 μg/mL, and then washed with cold PBS solution. Cells without peptides were used as controls. To evaluate incorporation of the fluorescently-labeled peptides for longer period of co-incubation of 24 h cells (C6, GL261, U87, U251) were treated with FITC-labeled peptides, then washed with PBS and assessed on a CytoFLEX flow cytometer (Beckman Coulter, USA). Following FACS analysis cell pellet was further evaluated employing confocal microscopy Leica TCS SP8 (Leica Microsystems, Germany).
(§2) The incorporation of peptides over longer periods of co-incubation with brain tumor cells was additionally analyzed using a Cytomics FC500 flow cytometer (BeckmanCoulter, USA). Tumor cells (C6, GL261, U87, U251) were incubated with peptides (concentration 50 μg/mL) for 24 hours, washed with PBS. Internalization of FITC-labeled peptides was assessed by determining the mean fluorescence intensity (MFI). According to the study data ( Figure 6A ), it was shown that TKD peptide accumulated in all cell lines – 2120 ± 152 (C6), 2099 ± 107 (GL261), 2145 ± 189 (U87), 2373 ± 201 (U251) compared to the control scramble peptide (NGL) – 378 ± 48 (C6), 344 ± 57 (GL261), 301 ± 66 (U87), 313 ± 56 (U251) (P<0.001). […] Following FACS analysis the cell pellet was collected and evaluated for peptides cell uptake employing confocal microscopy ( Figure 6B ). The obtained microscopy data confirmed higher accumulation of RAS70 peptide in studied cell lines as compared to TKD or scramble peptides.
(§3) Figure 6 Evaluation of the mHsp70-targeting peptides internalization by glioma cells. (A) Flow cytometric evaluation of FITC-labeled peptide accumulation in tumor cell lines (rat glioma C6, mouse glioma GL261, human glioblastoma U87 and U251) after co-incubation for 24 hours. […] (B) Confocal microscopy assessment of FITC-labeled peptide accumulation in tumor cell lines (rat glioma C6, mouse glioma GL261, human glioblastoma U87 and U251) after co-incubation for 24 hours. […] (C) Analysis of the peptides uptake by human U87 glioblastoma cells following co-incubation for 24 hours.
To evaluate the mHsp70-mediated uptake of the peptides prior to co-incubation with either TKD or RAS70 peptides cells were pre-treated with anti-Hsp70 antibodies (SPA-810, SPA-815) that are known to target the membrane-bound chaperone on cancer cells ([37]). […] The tripeptide RGD (Arg-Gly-Asp) motif is known to bind to integrins, including αvβ3 and αvβ5 expressed on brain tumor cells and tumor endothelial cells ([38], [39]). […] As expected, we observed the decrease of NGL-RGD and RAS70 internalization by tumor cells but not of TKD or NGL peptides ( Figure 6C ).

[2] = tested on: C6, GL261, and T98G cells; assay: MTT test, overall statement for all cell lines studied; conditions: fluorescently labeled peptides, 7.5, 75, 750 µg/mL, 24, 48 and 72 hours
Protocol: 3-(4,5-dimethylthiazol-2-yl)-2,5-diphenyltetrazolium bromide (MTT) assay was performed to evaluate the cytotoxic effect of TKD-sCy5, RAS70-sCy5, and NGL-RGD-sCy5 peptides. The C6, GL261, and T98G cells were seeded in 96-well plates (Thermo Fisher Scientific, Waltham, USA) at concentration of 5*10^3 cells in 100 µL per well, plates were incubated at 37°C in 5% CO2. After 24 hours, peptides were added to the culture medium for final concentration of 7.5, 75, and 750 μg/mL; plates were incubated for 24, 48 and 72 hours. […] At the end of the incubation period, 1 mg/mL MTT solution was added for 4 hours and dissolved with DMSO. The absorbance was measured at 570 nm using Varioskan LUX Multimode Microplate Reader (Thermo Fisher Scientific, Waltham, USA).
Subsequently, we analyzed the cytotoxic effect of the peptides (RAS70, TKD, NGL, NGL-RGD) using the MTT test at various peptides concentrations (7.5, 75, 750 µg/mL) and co-incubation times of 24, 48 and 72 hours.

[3] = tested on: C6 (rat glioma) cells; assay: Flow cytometry of FITC-labeled peptide internalization, 24 h; format: cell-based; conditions: 50 μg/mL, M ± SE, 3 independent experiments
Protocol: as §1, §2, §3

[4] = tested on: GL261 (mouse glioma) cells; assay: as above; format: cell-based; conditions: 50 μg/mL, M ± SE, 3 independent experiments
Protocol: as §1, §2, §3

[5] = tested on: human glioblastoma U251 cells; assay: as above; format: cell-based; conditions: 50 μg/mL, M ± SE, 3 independent experiments
Protocol: as §1, §2, §3

[6] = tested on: U87 cells (lower chamber; HUVEC and astrocytes barrier); assay: Transwell BBB model, peptide passage and accumulation in tumor cells (also with antibody pre-treatment); format: in vitro ADME, human
Text: Fluorescently labeled cells were counted in the lower chamber.
Next, we assessed the mHsp70- and integrin (αvβ3, αvβ5)-mediated penetration of the TKD and RAS70 via the BBB ( Figure 9B ). […] When anti-αvβ3 and anti-αvβ5 mAbs were employed, we detected the decrease of NGL-RGD and RAS70 penetration via the BBB but not the NGL and TKD peptides.

[7] = tested on: C6 cells (lower chamber; HUVEC and astrocytes barrier)
Protocol: (§4) Then, a peptide labeled with a fluorescent label was introduced into the upper chamber and co-incubation was carried out for 12, 24 and 36 hours. At the end of the incubation, the tumor cells were washed with cold phosphate-buffered saline (PBS) and fixed with a 4% solution of paraformaldehyde in PBS. Nuclei were stained with 4’,6-diamidino-2-phenylindole (DAPI). Fluorescent images were obtained using a Leica TCS SP8 confocal microscope (Leica, Germany). To avoid possible cross-interference of different fluorochromes, images for DAPI and FITC were obtained using a sequential sample scanning method. Fluorescently labeled cells were counted in the lower chamber. To estimate the mHsp70-mediated uptake of chaperone-targeted peptides tumor cells prior to incubation were pre-treated with anti-Hsp70 monoclonal antibodies SPA-810 (1:250, Stressgen) and SPA-815 (1:250 Stressgen). To exclude integrin (αvβ3, αvβ5)-mediated penetration of RAS70 tumor cells prior to incubation with peptides were pre-treated with anti- αvβ3 (1:200 clone LM609, ZMS1030, Sigma-Aldrich, USA), -αvβ5 (1:200 clone P1F6, MAB1961Z, Sigma-Aldrich, USA) monoclonal antibodies.
(§5) Then, a peptide labeled with a fluorescent dye (FITC) was introduced into the upper chamber and co-incubation was carried out for 12, 24 and 36 hours. At the end of the incubation, the tumor cells were washed with cold phosphate-buffered saline (PBS) and fixed with a 4% solution of paraformaldehyde in PBS. Nuclei were stained with 4’,6-diamidino-2-phenylindole (DAPI).
(§6) Data from 3 independent experiments are presented as M ± SE. […] Data from 3 independent experiments are presented as M ± SE. ** p < 0.01 for testing mean expression levels.

[8] = tested on: GL261 cells (lower chamber; HUVEC and astrocytes barrier)
Protocol: as §4, §5, §6

[9] = tested on: U251 cells (lower chamber; HUVEC and astrocytes barrier)
Protocol: as §4, §5, §6

Compound | peptide internalization after pre-treatment with anti-αvβ3 and -αvβ5 antibodies ([1]; U87, 24 hours, cells pre-treated with anti-αvβ3 (LM609) and anti-αvβ5 (P1F6) mAbs (1:200)) | peptide uptake after pre-treatment with both anti-Hsp70 and anti-αvβ3/-αvβ5 mAbs ([1]; U87, 24 hours, combination of antibodies) | cytotoxic effect (MTT test) [2] | mean fluorescence intensity (MFI), internalization of FITC-labeled peptide [3] | mean fluorescence intensity (MFI), internalization of FITC-labeled peptide [4] | mean fluorescence intensity (MFI), internalization of FITC-labeled peptide [5] | mean fluorescence intensity (MFI), internalization of FITC-labeled peptide ([1]; U87, 50 μg/mL, 24 hours, flow cytometry, M ± SE, 3 independent experiments) | fluorescently labeled tumor cells in the lower chamber ([6]; transwell BBB model: HUVEC (5×10^5) and astrocytes (5×10^5) in upper chamber, U87 (1×10^4) in lower chamber, FITC-labeled peptide, 36 hours, confocal microscopy count, M ± SE, 3 independent experiments) | penetration via the BBB after combined anti-αvβ3, anti-αvβ5 and anti-Hsp70 mAbs ([6]; transwell, U87 cells, combined antibody treatment) | fluorescently labeled tumor cells in the lower chamber [7] | fluorescently labeled tumor cells in the lower chamber [8] | fluorescently labeled tumor cells in the lower chamber [9]
CC(C)C[C@H](NC(=O)CNC(=O)[C@@H](N)CC(N)=O)C(=O)N[C@H](C(=O)N[C@@H](CC(C)C)C(=O)N[C@@H](CCCCN)C(=O)N[C@@H](CC(N)=O)C(=O)N[C@@H](CC(=O)O)C(=O)N[C@@H](Cc1ccccc1)C(=O)N[C@@H](CO)C(=O)N[C@@H](CCCNC(=N)N)C(=O)N[C@@H](CC(C)C)C(=O)N[C@@H](CCC(=O)O)C(=O)NCC(=O)NCCC(=O)N[C@@H](CCCNC(=N)N)C(=O)NCC(=O)N[C@@H](CC(=O)O)C(=O)O)[C@@H](C)O [NGL-RGD] (H-NGLTLKNDFSRLEG[βAla]RGD-OH) | decrease | significant abrogation | did not reveal the toxic effect |  |  |  |  |  |  |  |  | 
NGLTLKNDFSRLEG |  |  |  | 378 ± 48 | 344 ± 57 | 313 ± 56 | 301 ± 66 | 211 ± 41 cells | excluding | 211 ± 29 cells | 188 ± 47 cells | 221 ± 38 cells
